Experimental data: paper PMC9103625, “The Role of the Nucleotides in the Insertion of the bis-Molybdopterin Guanine Dinucleotide Cofactor into apo-Molybdoenzymes” (Molecules, 2022)

Key:
apo-YdhV = biological target: T1, apo-YdhV (Escherichia coli, UniProt P76192); experiment: in vitro reconstitution, gel filtration, HPLC of dephospho-FormA; format: binding; conditions: 1.3 µM apo-YdhV, 7 h, 37 °C, pH 7.2, anaerobic, cofactor from alkaline phosphatase treatment
T1 construct: from plasmid SR153, expressed in E. coli RK5200, Ni-NTA and size exclusion purified; cofactor-free apo-protein
T1 sequence (P76192 1-700): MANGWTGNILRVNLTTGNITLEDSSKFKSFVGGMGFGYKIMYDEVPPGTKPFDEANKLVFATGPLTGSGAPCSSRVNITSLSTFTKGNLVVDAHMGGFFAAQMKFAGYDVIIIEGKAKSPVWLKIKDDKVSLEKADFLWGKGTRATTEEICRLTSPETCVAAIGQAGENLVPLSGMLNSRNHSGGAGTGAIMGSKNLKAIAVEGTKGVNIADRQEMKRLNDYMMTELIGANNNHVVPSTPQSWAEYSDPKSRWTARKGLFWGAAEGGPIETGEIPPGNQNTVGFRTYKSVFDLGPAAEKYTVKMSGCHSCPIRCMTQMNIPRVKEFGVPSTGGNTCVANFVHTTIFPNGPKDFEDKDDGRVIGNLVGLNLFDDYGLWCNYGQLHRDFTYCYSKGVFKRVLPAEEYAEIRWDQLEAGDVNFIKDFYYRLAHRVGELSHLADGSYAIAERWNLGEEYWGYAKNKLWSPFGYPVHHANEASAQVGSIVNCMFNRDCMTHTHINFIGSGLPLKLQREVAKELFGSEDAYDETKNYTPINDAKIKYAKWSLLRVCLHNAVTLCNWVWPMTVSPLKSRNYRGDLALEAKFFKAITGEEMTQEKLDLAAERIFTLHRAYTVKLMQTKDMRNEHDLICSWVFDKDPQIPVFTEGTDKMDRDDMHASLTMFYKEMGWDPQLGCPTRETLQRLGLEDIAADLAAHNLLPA

apo-TorA = biological target: T2, apo-TorA (Escherichia coli, UniProt P33225); experiment: in vitro reconstitution, gel filtration, HPLC of FormA-GMP; format: binding; conditions: 1.3 µM apo-TorA, bis-MGD extracted from wtTorA, saturation at 25 µM donor, 7 h, 37 °C, pH 7.2, anaerobic
T2 construct: from plasmid pJF119EH, Ni-NTA and size exclusion purified; cofactor-free apo-enzyme reconstituted in vitro
T2 sequence (P33225 40-848): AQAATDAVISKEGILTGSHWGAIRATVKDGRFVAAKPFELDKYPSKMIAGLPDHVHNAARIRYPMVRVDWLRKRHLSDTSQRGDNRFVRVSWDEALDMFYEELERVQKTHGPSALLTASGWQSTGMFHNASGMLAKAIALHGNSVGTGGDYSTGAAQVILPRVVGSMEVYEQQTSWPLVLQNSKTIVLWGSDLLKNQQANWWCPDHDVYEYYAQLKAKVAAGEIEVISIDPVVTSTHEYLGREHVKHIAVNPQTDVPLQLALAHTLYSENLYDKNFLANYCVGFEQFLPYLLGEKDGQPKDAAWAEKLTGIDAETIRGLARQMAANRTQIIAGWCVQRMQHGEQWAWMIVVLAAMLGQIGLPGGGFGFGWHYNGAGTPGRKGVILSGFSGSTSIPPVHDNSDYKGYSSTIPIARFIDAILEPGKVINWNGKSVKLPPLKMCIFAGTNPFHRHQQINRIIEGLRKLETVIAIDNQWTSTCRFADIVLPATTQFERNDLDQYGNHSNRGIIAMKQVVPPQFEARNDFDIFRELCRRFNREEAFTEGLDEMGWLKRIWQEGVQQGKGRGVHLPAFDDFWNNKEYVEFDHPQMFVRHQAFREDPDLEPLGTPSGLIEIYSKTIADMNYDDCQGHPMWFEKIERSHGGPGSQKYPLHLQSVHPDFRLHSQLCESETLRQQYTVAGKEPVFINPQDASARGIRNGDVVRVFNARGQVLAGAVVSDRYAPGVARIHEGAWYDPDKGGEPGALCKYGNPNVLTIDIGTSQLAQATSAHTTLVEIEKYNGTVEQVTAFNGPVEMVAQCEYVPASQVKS

MobA = biological target: T3, MobA (Escherichia coli, UniProt P32173); experiment: conversion to bis-MGD, HPLC of FormA-GMP; format: biochemical; conditions: 3 µM MobA, 1 mM GTP, 1 mM MgCl2, 5 min, room temperature, bis-Mo-MPT from 30 µM YdhV
T3 construct: from plasmid pCT800A, Ni-NTA and size exclusion purified; monomer
T3 sequence (P32173 1-194): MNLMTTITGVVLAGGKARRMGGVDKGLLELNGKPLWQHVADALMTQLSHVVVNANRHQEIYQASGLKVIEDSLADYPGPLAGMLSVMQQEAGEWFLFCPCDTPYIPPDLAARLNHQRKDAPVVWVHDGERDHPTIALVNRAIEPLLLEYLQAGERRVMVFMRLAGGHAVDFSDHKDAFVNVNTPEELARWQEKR

dephospho-bis-Mo-MPT
% bound at 100 μM donor (apo-YdhV): 25.1%

Nc1nc2c(c(=O)[nH]1)N[C@H]1C([S-])=C([S-])[C@@H](COP(=O)([O-])OP(=O)([O-])OC[C@H]3O[C@@H](n4cnc5c(=O)[nH]c(N)nc54)[C@H](O)[C@@H]3O)O[C@H]1N2.Nc1nc2c(c(=O)[nH]1)N[C@H]1C([S-])=C([S-])[C@@H](COP(=O)([O-])OP(=O)([O-])OC[C@H]3O[C@@H](n4cnc5c(=O)[nH]c(N)nc54)[C@H](O)[C@@H]3O)O[C@H]1N2.[O]=[Mo+4] [bis-MGD]
% bis-MGD saturation (maximum) (apo-TorA): 61.9%

Nc1nc2c(ncn2[C@@H]2O[C@H](COP(=O)(O)OP(=O)(O)OP(=O)(O)O)[C@@H](O)[C@H]2O)c(=O)[nH]1 [GTP]
conversion to bis-MGD, HPLC of FormA-GMP (MobA): we converted bis-Mo-MPT into bis-MGD by the attachment of nucleotides using MobA and Mg-GTP
